Several values for one entry are separate records, joined by “and”; a condition that tells them apart may be missing. Equal values may be shown once. Where only a bound is given, the exact number is not on record here.

The test system of data set [1] is dogs with electrically induced ventricular fibrillation. Nature of the data set: Phase Ib: cardiac resuscitation of dogs after induced ventricular fibrillation (Thumper CPR, external defibrillation, T3a bolus into right ventricle). Format: in vivo, dog. Particulars: Post T3a (15 m), individual dogs. The protocol: All animals were fasted overnight and anesthesia was induced by intravenous sodium thiopental (Pentothal sodium 15-25 mg/kg). After intubation and ventilation by a ventilator (North American Dräger, Anesthesia and Ventilator, Model AVE-K, Serial No. 5033), anesthesia was maintained by 2% isoflurane (Isoflurane Vaporizer, R-Vapor, R-24045), and oxygen. ECG (Hewlett Packard Model No. 78346A). Oxygen saturation was monitored continuously. Preoperatively, all animals received Acepromazine maleate, 0.25-0.5 mg, I.M, lactated Ringer's solution was given intravenously (250 ml-350 ml/hr) during the procedure.
A 8.5Fr. catheter sheath was introduced into the right femoral artery and the side arm was connected to a fluid transducer for the continuous measurement of systemic arterial blood pressure. A 7Fr. Bipolar Multipurpose A-2 Electrode Catheter, 1 Lumelec™ (Lot no. 30395908, Catalog no. 528-724, Cordis, USA) tipped with pressure transducer with 2 side holes, 2 electrodes with an open end, 125 cm long, and 0.038 inch diameter, was advanced through the catheter sheath, and placed into the left ventricle. Continuous measurement of the systemic left ventricular pressure was obtained. Analog signals from the pressure transducers were obtained using an amplifier (PM-1000, CWE Inc., Ardmore, Pa.).
A 8.5Fr. catheter sheath was introduced into the right femoral vein and a 7Fr. MP A2, Multipurpose high flow catheter (catalog no. 527-742, Cordis, USA) with open end and side holes was placed into the right ventricle for T3a injections. Another 7Fr. catheter sheath was introduced into the left femoral artery and a 6Fr. pigtail catheter (catalog no. 527-654S, 110 cm, 155° angled) was placed into the descending aorta for the collection of aortic blood samples after T3a injections into the right ventricle. ECG (Hewlett-Packard, Model No. 78346A, Ser. No. 2320A00522) was continuously monitored. A temperature-monitoring device (T. SIN, Japan, designed for YSI series 400 thermistors), connected to the data acquisition system, was introduced into the external ears of all the animals to continuously measure body temperature.
The two distal ends of the 7Fr. Bipolar Multipurpose A-2 Electrode Catheter were connected to a Transformer. The electrical system can deliver 15V, 20 mA AC current through the pacing catheter system. The anesthesia was stopped. A venous blood sample from the right ventricle was obtained. Lid reflexes returned in several minutes.
The lid reflexes were checked by the finger method system and when frequent blinking of the lids was obtained, procedures for the ventricular fibrillation were carried out. […]
The force of compression necessary to achieve this baseline condition was recorded and not altered during subsequent provision of chest compressions. […]

For data set [2] the test system is unchanged. The data set is described as follows: Phase Ia (methodology section): fibrillation/defibrillation in dogs with T3a or epinephrine. Format: in vivo, dog. The following applies: individual dogs. The text has this: Phase 1a was dedicated towards developing the basic methodology in the initial experiments, manual chest compression (CPR) and an internal defibrillator were employed. Induction of ventricular fibrillation and defibrillation were problematic with the internal electrodes because of the size mismatch: electrodes designed for humans being used in a smaller sized animal. In later experiments, the internal system was replaced with an LV pacing catheter connected to AC current via a step-down transformer (to induce ventricular fibrillation), and a new external, “hands-off” defibrillator. The manual chest compression was replaced with a THUMPER CPR system.
In the experiments, T3a was given 30 seconds before defibrillation. Preferably, T3a injection was given 60 to 90 seconds after defibrillation.
The results section was divided into Phases Ia (n=9) and Ib (n=8). The hemodynamic data were not consistently available in Phase Ia as there was no spontaneous or induced recovery except for 3 animals. Use of T3a was limited to only 3 dogs in this phase although epinephrine was used in 5 of them. This phase was dedicated towards the development of the Phase Ib parameters.
HVS-02 Fibrillator and Defibrillator were used in the tests. The operating instructions for the HVS-02 Fibrillator and Defibrillator can be found in the Manual for HVS-02 Fibrillator and Defibrillator.
Phase Ia was dedicated towards developing the basic methodology. […] In 3 animals, the hemodynamic data after defibrillation were less than the pre-fibrillatory data. […] In the experiments, internal defibrillator was used for the preliminary experiments and T3a was given just before defibrillation (30 seconds). Moreover, THUMPER CPR was used in the last 2 dogs instead of manual CPR. Thumper CPR worked well and it was used for the subsequent T3a experiments of Phase Ib. Manual chest compression was maintained for another 5 minutes after defibrillation and T3a or epinephrine injections. Bolus epinephrine injection (100 μg/kg) was used in 5 random dogs.

The subject of data set [3] is purified cultured cardiac myocytes. Particulars: 125I-T3 at 10^−8 M.
Data set [4] in a line: Pharmacokinetic studies in a rodent model: serum T3 after single intramuscular bolus. Format: in vivo, rat. The following applies: rats; for Serum T3 level as % of the peak value: within 2 hours of injection.
A short description of data set [5]: Serum total T3 levels after T3a bolus during cardiac resuscitation in dogs. Type of data set: in vivo, dog. On the procedure:
Subsequent blood samples were obtained from the arterial circulation at 0.5 to 1.5 minutes after the bolus injection, and also at 15 to 20 minutes and 30 minutes, respectively.
Before sending the blood sample for immunoassay, in each experiment all the blood samples were collected in red-topped serum separator tubes. The tubes were centrifuged at 2500 rpm on a tabletop centrifuge for 10 minutes at 4° C. to separate the cells from the serum. The blood samples were then stored and frozen at −4° C.

The conditions of data set [6]: background statement; bound to thyroxine-binding globulin in human serum; cited from earlier work.

In the case of `CNC[C@H](O)c1ccc(O)c(O)c1` [Epi, epinephrine], in data set [1], the “D. AoP” value is 64.0 mmHg, the Recover result was “Yes”, the “S. AoP” value worked out at 82.7 mmHg and the “S. LVP” value stood at 103.0 mmHg. Further, in data set [2] (After D-Fib (+ drug)), the Recover entry is “No (2×) and Yes”. In data set [2] (Post (15 m)), the “D. AoP” value is 76.1 mmHg; the Recover entry is “No (2×) and Yes”; the “S. AoP” value was 89.3 mmHg; the “S. LVP” value worked out at 110.2 mmHg.
Consider `N[C@@H](Cc1cc(I)c(Oc2ccc(O)c(I)c2)c(I)c1)C(=O)O` [T3, 3,5,3′-triiodothyronine], for which the “Time to detection of T3 in the nucleus of the cell” value in data set [3] was not above 5 min. The “Half-life of T3 in serum, 5 μg/kg versus 100 μg/kg” value in data set [4] (i.m.) is reported as “identical”. Besides, the “Serum T3 level as % of peak values” in data set [4] (i.m., 24 hours after injection, within normal physiological range) is 10%. For the same compound, the “Serum T3 level as % of the peak value” in data set [4] (i.m., high dose 100 μg/Kg) came out at 64%; in data set [4] (i.m., low dose 5 μg/Kg), 90%. Also, the “Time to peak serum T3 values” in data set [4] (intramuscular, 5 μg/Kg and 100 μg/Kg) is not above 30 min. In addition, the “Time serum T3 levels were maintained at high level” value in data set [5] (4 μg T3/kg) was 30 min. In data set [5] (4 μg T3/kg, within 2 minutes of drug administration), the “Serum T3 levels” value is recorded as “greater than 9000 ng/dl”. Further, the “Increase of serum T3 level over baseline” value in data set [5] (bolus 4 μg/kg, one minute after injection, baseline 87±6 ng/dl) turned out to be 100 fold.
For the compound `NC(Cc1cc(I)c(Oc2cc(I)c(O)c(I)c2)c(I)c1)C(=O)O` (stereo not shown) [T4], the Half-life in data set [6] is 6 to 7 days.
